SMILES strings stand for the structures.

The experiment deals with eNOS promoter. Nature of the experiment: Activation of eNOS transcription (eNOS promoter-luciferase reporter gene assay). It counts as cell-based. The following applies: human endothelial cell line stably transfected with eNOS promoter-luciferase construct, 18 h incubation, determined graphically; read-out: EC50 values of transcription induction ratios (TIR). The method, then:
Activation of eNOS transcription was measured as described in detail by L^1 et al., “Activation of protein kinase C alpha and/or epsilon enhances transcription of the human endothelial nitric oxide synthase gene”, Mol. Pharmacol. 53 (1998) 630. Briefly, a 3.5 kB long fragment 5′ of the starting codon of the eNOS gene was cloned, sequenced and cloned in firefly luciferase expression plasmids to monitor activation of the eNOS promoter by reporter gene activity. A human endothelial cell line stable transfected and expressing this promoter-reporter construct was used for compound testing. Cells were incubated for 18 h with the compounds.
All compounds were dissolved in sterile dimethyl sulfoxide (DMSO). A final concentration of 0.5% DMSO in complete medium was allowed. Induction of reporter gene expression in these cells was measured using a standard luciferase assay system (Promega, Cat. No. E150) according to the manufacturer's instructions. Luciferase induction in cells incubated with compounds were compared to those incubated with solvent alone. The ratio of both activities (transcription induction ratio, TIR) was plotted as a function of compound concentration. Typically, TIR values started at low concentrations at a ratio of 1, indicating no compound effect, and extended up to a maximum TIR value TIR(max) which indicates the increase of the eNOS transcription. EC50 values of transcription induction ratios as a function of compound concentration were determined graphically.
(Reporter assays use an easily measured gene product as a stand-in for the process of interest.)
With `O=C1CCC(=O)N1CCNc1nc(-c2ccc(F)cc2)cs1` [Example 34, 1-(2-(4-(4-Fluorophenyl)thiazol-2-ylamino)ethyl)pyrrolidine-2,5-dione], the EC50 lay in the range of 500 to 5000 nM. Under `O=C1CSCCN1CCCc1ccc(-c2ccccc2Cl)nc1` [Example 7, 4-(3-(6-(2-Chlorophenyl)pyridin-3-yl)propyl)thiomorpholin-3-one] stands 500 to 5000 nM; under `Cc1cc(-c2ccc(OCCN3C(=O)CCC3=O)cn2)ccc1F` [Example 86, 1-(2-(6-(4-fluoro-3-methylphenyl)pyridin-3-yloxy)ethyl)pyrrolidine-2,5-dione], under 500 nM. Under `Cc1csc(-c2ccc(OCCN3C(=O)CCC3=O)cn2)c1` [Example 52, 1-(2-(6-(4-methylthiophen-2-yl)pyridin-3-yloxy)ethyl)pyrrolidine-2,5-dione] stands under 500 nM. Consider `O=C1CCC(=O)N1CCOc1ccc(-c2ccc(F)c(Cl)c2)nc1` [Example 50, 1-(2-(6-(3-Chloro-4-fluorophenyl)pyridin-3-yloxy)ethyl)pyrrolidine-2,5-dione], for which the EC50 is under 500 nM. On to `O=C1CSC=CN1CCCc1ccc(-c2ccc(F)cc2)nc1` [Example 25, 4-(3-(6-(4-Fluorophenyl)pyridin-3-yl)propyl)-4H-[1,4]thiazin-3-one], for which the EC50 was under 500 nM. Under `N#Cc1cccc(-c2ccc(OCCN3C(=O)CCC3=O)cn2)c1` [Example 64, 1-(2-(6-(3-cyanophenyl)pyridin-3-yloxy)ethyl)pyrrolidine-2,5-dione] stands 500 to 5000 nM. Regarding `O=C1CCCCCN1CCCc1ccc(-c2ccc(F)cc2)nc1` [Example 18, 1-(3-(6-(4-Fluorophenyl)pyridin-3-yl)propyl)azepan-2-one], the EC50 is under 500 nM. Under `O=C(O)CCCC(=O)NCCCc1ccc(-c2ccc(F)cc2)nc1` [Example 17, 4-(3-(6-(4-Fluorophenyl)pyridin-3-yl)propylcarbamoyl)butyric acid] stands 500 to 5000 nM; under `O=C1CCC(=O)N1CCOc1ccc(-c2cccc3ccccc23)nc1` [Example 66, 1-(2-(6-(naphthalen-1-yl)pyridin-3-yloxy)ethyl)pyrrolidine-2,5-dione], 500 to 5000 nM.
